According to US20240350650A1, “LINKER AND CONJUGATE THEREFOR” (BEIJING HOPE PHARMACEUTICAL CO.LTD., priority 2021, published 2024):

Assays:
Test in all cases: Inhibition of tumor cell proliferation (CTG, 6 days)
Type in all cases: cell-based, human
NCI-H596 cells = conditions: FIG. 8
Method: (§1) All the cells were those with high expression of Trop2 antigens. Trodelvy was the tradename of sacituzumab govitecan injector. Sacituzumab was an outsourced anti-Trop2 antibody. All cell lines were cultured in the complete medium at 37° C. with 5% CO2. Cells in the logarithmic growth phase were harvested and then counted using a […], and the cell viability was tested by the trypan blue rejection method to ensure that the cell viability was above 90%. […] The cells in the 96-well plate were cultured at 37° C. with 5% CO2. […] The cells from the dosed 96-well plate were cultured at 37° C. with 5% CO2 for another 6 days, followed by CTG analysis (CTG, a CellTiter-Glo kit, was a homogeneous cell viability assay for quantifying ATP to determine the viability of cultured cells). The CTG reagent was thawed, and the cell plate was equilibrated to room temperature for 30 min. 100 μL of CTG solution was added per well. The cells were shaken on an orbital shaker for 5 min for lysis. The cell plate was treated at room temperature for 20 min to stabilize the cold light signal. The cold light values were read to collect data. […] [formula]

SNU216 cells = conditions: FIG. 6
Method: as §1

NCI-H1650 cells = conditions: FIG. 7
Method: as §1

MDA-MB-468 cells = conditions: FIG. 5
Method: as §1

Trodelvy
efficacy (in words) (NCI-H596 cells): certain efficacy | efficacy (in words) (SNU216 cells): superior to Sacituzumab | efficacy (in words) (NCI-H1650 cells): superior to Sacituzumab | efficacy (in words) (MDA-MB-468 cells): superior to Sacituzumab
